Assay results taken from ChEMBL document CHEMBL1136368, “Antiviral activity of cyclopentenyl nucleosides against orthopox viruses (Smallpox, monkeypox and cowpox)” (Bioorg Med Chem Lett, 2003).
Converted amounts (≈) assume the structure as drawn.

Tests used:
Vero [1] = tested on: Vero
in vitro [2] = settings: rhesus monkey, LLC-MK2 cells (ATCC CRL 7)
in vitro [3] = settings: rhesus monkey, LLC-MK2 cells (ATCC CRL 7); remark: listed apart in the source
Vero [4] = tested on: Vero; remark: listed apart in the source
Vero [5] = tested on: Vero; remark: listed apart in the source
Vero [6] = tested on: Vero; remark: listed apart in the source
in vitro [7] = settings: monkey, Vero 76 cells (ATCC CRL 1587)
in vitro [8] = settings: rhesus monkey, LLC-MK2 cells (ATCC CRL 7); remark: listed apart in the source
in vitro [9] = settings: monkey, Vero 76 cells (ATCC CRL 1587); remark: listed apart in the source
Vero [10] = tested on: Vero; remark: listed apart in the source
Vero [11] = tested on: Vero; remark: listed apart in the source
in vitro [12] = settings: monkey, Vero 76 cells (ATCC CRL 1587); remark: listed apart in the source
Vero [13] = tested on: Vero; remark: listed apart in the source
Vero [14] = tested on: Vero; remark: listed apart in the source
in vitro [15] = settings: monkey, Vero 76 cells (ATCC CRL 1587); remark: listed apart in the source
in vitro [16] = settings: rhesus monkey, LLC-MK2 cells (ATCC CRL 7); remark: listed apart in the source
in vitro [17] = settings: rhesus monkey, LLC-MK2 cells (ATCC CRL 7); remark: listed apart in the source
Vero [18] = tested on: Vero; remark: listed apart in the source
Vero [19] = tested on: Vero; remark: listed apart in the source
in vitro [20] = settings: monkey, Vero 76 cells (ATCC CRL 1587); remark: listed apart in the source

Row | Compound | EC50 (Vero [1]) [µg/mL] | selectivity ratio (in vitro [2]) | selectivity ratio (in vitro [3]) | EC50 (Vero [4]) [µg/mL] | IC50 (Vero [5]) [µg/mL] | EC50 (Vero [6]) [µg/mL] | selectivity ratio (in vitro [7]) | selectivity ratio (in vitro [8]) | selectivity ratio (in vitro [9]) | IC50 (Vero [10]) [µg/mL] | IC50 (Vero [11]) [µg/mL] | selectivity ratio (in vitro [12]) | IC50 (Vero [13]) [µg/mL] | IC50 (Vero [14]) [µg/mL] | selectivity ratio (in vitro [15]) | selectivity ratio (in vitro [16]) | selectivity ratio (in vitro [17]) | EC50 (Vero [18]) [µg/mL] | EC50 (Vero [19]) [µg/mL] | selectivity ratio (in vitro [20])
1 | Nc1nc(=O)n([C@H]2C=C(CO)[C@H](O)[C@@H]2O)cc1F | 1.17 (≈ 4.55 µM) | > 196 | > 58 | 2.05 (≈ 7.97 µM) | 39 (≈ 152 µM) | 2.63 (≈ 10.2 µM) | > 69 | 162 | 15 | 100 (≈ 389 µM) | 100 (≈ 389 µM) | 86 | > 100 | > 100 | > 74 | 189 | > 164 | 1.35 (≈ 5.25 µM) | 1.46 (≈ 5.68 µM) | 49
2 | Nc1ncnc2c1ncn2[C@@H]1C=C(CO)[C@@H](O)[C@H]1O [NEOPLANOCIN A] | 0.14 (≈ 0.532 µM) | 360 | 230 | 0.21 (≈ 0.798 µM) | 50 (≈ 190 µM) | 0.03 (≈ 0.114 µM) | 1 | 1 | 1670 | 57 (≈ 217 µM) | – | 71 | 20 (≈ 76 µM) | > 100 | < 0.2 | 12 | 161 | > 100 | > 100 | 271
3 | Nc1ccn([C@@H]2C=C(CO)[C@@H](O)[C@H]2O)c(=O)n1 | > 100 | 100 | 550 | < 0.05 | > 100 | < 0.05 | 1000 | > 166 | > 2000 | 4 (≈ 16.7 µM) | 30 (≈ 125 µM) | 0.3 | 1 (≈ 4.18 µM) | 40 (≈ 167 µM) | > 20 | 300 | 210 | 0.05 (≈ 0.209 µM) | 0.04 (≈ 0.167 µM) | > 80
4 | OCC1=C[C@@H](n2cnc3c(O)ncnc32)[C@H](O)[C@@H]1O | > 100 | – | – | > 100 | > 100 | > 100 | – | – | – | > 100 | > 100 | – | > 100 | > 100 | – | – | – | > 100 | > 100 | –
